Experimental data published in ChEMBL document CHEMBL1154103, “Bioactive conformation analysis of cyclic imides as protoporphyrinogen oxidase inhibitor by combining DFT calculations, QSAR and molecular dynamic simulations” (Bioorg Med Chem, 2009).

Target: T1, Protoporphyrinogen oxidase (Bacillus subtilis (strain 168), UniProt P32397)
T1 sequence (P32397 whole entry): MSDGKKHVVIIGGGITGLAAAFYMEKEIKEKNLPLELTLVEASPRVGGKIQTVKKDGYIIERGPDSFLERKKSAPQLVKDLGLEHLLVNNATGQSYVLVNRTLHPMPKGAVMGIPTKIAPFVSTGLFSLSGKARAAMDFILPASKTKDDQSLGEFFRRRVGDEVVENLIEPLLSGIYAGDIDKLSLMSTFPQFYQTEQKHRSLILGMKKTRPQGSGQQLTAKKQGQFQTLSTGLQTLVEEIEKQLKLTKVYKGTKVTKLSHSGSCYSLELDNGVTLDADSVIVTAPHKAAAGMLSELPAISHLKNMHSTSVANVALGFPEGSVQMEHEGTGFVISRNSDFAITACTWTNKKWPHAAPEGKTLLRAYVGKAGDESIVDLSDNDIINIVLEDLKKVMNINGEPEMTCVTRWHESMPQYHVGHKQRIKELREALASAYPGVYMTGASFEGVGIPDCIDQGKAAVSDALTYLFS
Experiment: Inhibition of Bacillus subtilis Protoporphyrinogen oxidase by capillary electrophoresis

SMILES	Ki [nM]
CCOC(=O)C(CC)N1C(=O)COc2cc(F)c(N3C(=O)C4=C(CCCC4)C3=O)cc21 (stereo not given)	44.7
N#CCN1C(=O)COc2cc(F)c(N3C(=O)c4ccccc4C3=O)cc21	1020
COC(=O)CN1C(=O)C(C)Oc2cc(F)c(N3C(=O)C4=C(CCCC4)C3=O)cc21 (stereo not given)	39.8
CC(C)(CCl)C(=O)Nc1cc(N2C(=O)C3=C(CCCC3)C2=O)c(F)cc1Cl	871
CCOC(=O)C(C)N1C(=O)COc2cc(F)c(N3C(=O)C4=C(CCCC4)C3=O)cc21 (stereo not given)	120
C#CCN1C(=O)C(C)Oc2cc(F)c(N3C(=O)c4ccc(C)cc4C3=O)cc21 (stereo not given)	4790
CCC(C(=O)OC)N1C(=O)COc2cc(F)c(N3C(=O)C4=C(CCCC4)C3=O)cc21 (stereo not given)	8.13
O=C(NC(=O)c1ccccc1)Nc1cc(N2C(=O)C3=C(CCCC3)C2=O)ccc1Cl	6170
C#CCN1C(=O)COc2cc(F)c(N3C(=O)c4ccccc4C3=O)cc21	3310
O=C(Nc1cccc(C(F)(F)F)c1)Nc1cc(N2C(=O)C3=C(CCCC3)C2=O)c(F)cc1Cl	25.1
C#CCN1C(=O)COc2cc(F)c(N3C(=O)c4ccc(C)cc4C3=O)cc21	2820
C#CCN1C(=O)C(C)Oc2cc(F)c(N3C(=O)c4cccc(F)c4C3=O)cc21 (stereo not given)	5010

Continued by falling Ki, values first:

Ki [nM]	SMILES
372	CNC(=O)Nc1cc(N2C(=O)C3=C(CCCC3)C2=O)c(F)cc1Cl
288	CCCN(CCC)C(=O)Nc1cc(N2C(=O)C3=C(CCCC3)C2=O)ccc1Cl
229	CC(C)N(C(=O)Nc1cc(N2C(=O)C3=C(CCCC3)C2=O)c(F)cc1Cl)C(C)C
110	CCOC(=O)C(C)N1C(=O)C(C)Oc2cc(F)c(N3C(=O)C4=C(CCCC4)C3=O)cc21 (stereo not given)
91.2	CCOC(=O)C(c1ccccc1)N1C(=O)C(C)Oc2cc(F)c(N3C(=O)C4=C(CCCC4)C3=O)cc21 (stereo not given)
89.1	O=C(NC(=O)c1ccccc1)Nc1cc(N2C(=O)C3=C(CCCC3)C2=O)c(F)cc1Cl
60.3	CCOC(=O)CN1C(=O)C(C)Oc2cc(F)c(N3C(=O)C4=C(CCCC4)C3=O)cc21 (stereo not given)
49	COC(=O)C(C)N1C(=O)C(C)Oc2cc(F)c(N3C(=O)C4=C(CCCC4)C3=O)cc21 (stereo not given)
33.9	O=C(NC(=O)c1cccc(OC(F)(F)F)c1)Nc1cc(N2C(=O)C3=C(CCCC3)C2=O)c(F)cc1Cl
28.2	O=C(Nc1ccc(Cl)cc1)Nc1cc(N2C(=O)C3=C(CCCC3)C2=O)c(F)cc1Cl
26.9	O=C(NC(=O)c1ccc(Cl)cc1Cl)Nc1cc(N2C(=O)C3=C(CCCC3)C2=O)c(F)cc1Cl
12.9	O=C(NC(=O)c1c(Cl)cccc1Cl)Nc1cc(N2C(=O)C3=C(CCCC3)C2=O)c(F)cc1Cl
8.32	O=C(NC(=O)c1c(F)cccc1Cl)Nc1cc(N2C(=O)C3=C(CCCC3)C2=O)c(F)cc1Cl
